≈ marks a conversion by molar mass, not a printed value. Where “and” joins values, the source holds several entries; their conditions need not be identical. Identical values can stand only once.
Key:
Type in all cases: in vivo
[1] = Nonhuman primate toxicology study (NOAEL exposure); conditions: 20 mg BID vs nonhuman primate study
pRIPK1 = target: T1, pRIPK1 (Homo sapiens, UniProt Q13546); test: Population PK/PD analysis of pRIPK1
T1 construct: Human PBMC are a primary cell type that express endogenous RIPK kinase; endogenous in cells; host or cells: human PBMC isolated from blood of healthy participants
T1 sequence (Q13546 1-671): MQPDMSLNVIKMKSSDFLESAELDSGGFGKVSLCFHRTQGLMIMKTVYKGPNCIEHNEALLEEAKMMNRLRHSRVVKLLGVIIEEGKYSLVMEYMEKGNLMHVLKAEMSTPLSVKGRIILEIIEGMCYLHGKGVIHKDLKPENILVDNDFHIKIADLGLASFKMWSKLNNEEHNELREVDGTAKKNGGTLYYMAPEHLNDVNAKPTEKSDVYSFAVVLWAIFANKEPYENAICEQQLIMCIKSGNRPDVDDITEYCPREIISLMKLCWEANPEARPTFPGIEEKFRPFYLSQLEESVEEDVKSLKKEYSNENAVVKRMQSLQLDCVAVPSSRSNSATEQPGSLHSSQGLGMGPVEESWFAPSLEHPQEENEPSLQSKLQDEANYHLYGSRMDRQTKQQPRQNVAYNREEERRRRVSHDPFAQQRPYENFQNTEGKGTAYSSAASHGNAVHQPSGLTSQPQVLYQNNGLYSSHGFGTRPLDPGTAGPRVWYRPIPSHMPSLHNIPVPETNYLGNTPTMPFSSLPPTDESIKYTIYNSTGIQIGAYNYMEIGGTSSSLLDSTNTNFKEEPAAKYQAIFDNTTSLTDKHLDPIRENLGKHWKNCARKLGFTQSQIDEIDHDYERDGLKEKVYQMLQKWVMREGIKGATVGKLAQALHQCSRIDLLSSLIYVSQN
Procedure: An exploratory population pharmacokinetic/pharmacodynamic analysis of phosphorylated receptor-interacting protein kinase 1(pRIPK1) in healthy participants after single (SAD) and repeated (MAD) administrations of Compound 1 was carried out to develop a population PK/PD model from data after single and repeated doses in healthy adults and to derive individual parameters for each dose cohort.
The population PK/PD analysis was performed using the stochastic approximation expectation maximization (SAEM) algorithm for nonlinear mixed-effects models implemented in MONOLIX software (R1 2020). The observed plasma concentrations were used to develop the model with plasma concentrations from placebo participants and blow limit of quantitation (BLQ) plasma concentrations from verum participants being fixed to zero. Classical direct and indirect inhibitory models were evaluated. Model selection was based on objective function value Akaike and Bayesian Information criteria as well as standard goodness-of-fit plots (Psychol Methods. 2012 June; 17(2):228-43; Pharmaceutics. 2020 June; 12(6): 578.). From selected final population PK/PD model, individual PD parameters were derived and summarized by descriptive statistical analyses by study and dose level.
A total of 433 samples in 70 participants was considered (101, 121 and 211 samples after placebo, single dose and repeated doses, respectively). No data from potential outliers were excluded. In placebo participants, a very large inter-cohort and inter-individual variability was observed. […] Selection of structural PK/PD model confirmed that a direct relationship best described the data overall.

[2] = 6-month rat toxicology study (NOAEL exposure)
[3] = 20 mg QD vs 6-month rat toxicology study

## CC(C)(C(=O)N1CCOc2c(C#N)cncc2C1)C(F)F [Compound 1, 4-(3,3-difluoro-2,2-dimethyl-propanoyl)-3,5-dihydro-2H-pyrido[3,4-f] [1,4]oxazepine-9-carbonitrile]
[1]
  Safety margin relative to the NOAEL exposure: 10 fold
pRIPK1; derived typical value
  EC91, plasma conc for 91% decrease in E0: 23.9 ng/mL
  EC92, plasma conc for 92% decrease in E0: 30.7 ng/mL
  EC93, plasma conc for 93% decrease in E0: 43.3 ng/mL
  EC94, plasma conc for 94% decrease in E0: 76.1 ng/mL
  EC95, plasma conc for 95% decrease in E0: 0.6 µg/mL
pRIPK1; derived typical value, read-out: EC50, plasma conc for 50% decrease in E0 (converted)
  EC50: 6.2 nM
pRIPK1; derived typical value, read-out: EC90, plasma conc for 90% decrease in E0
  EC90: 0.0197 µg/mL (≈ 0.0667 µM)
pRIPK1; population PK/PD model
  0(Gamma): 49.5%
  E0, baseline effect: 8541 AU_signal
  σprop: 44.5%
  ω(E0): 73.7%
  ω(IC50): 71.4%
  ω(Imax): 192%
pRIPK1; population PK/PD model, sigmoidal Imax
  Gamma: 1.17
pRIPK1; population PK/PD model, typical value, SAD and MAD data
  Imax, maximum inhibitory effect on pRIPK1: 95.1% and 95%
pRIPK1; population PK/PD model, typical value, SAD and MAD data, read-out: IC50, plasma concentration needed for 50% of Imax (pRIPK1) (converted)
  IC50: 5.69 nM
[2]; 15 mg BID vs 6-month rat toxicology study
  Human Cmax and AUCtau, fold lower than exposure at NOAEL: 10 fold
[2]; 20 mg BID vs female rats
  Human AUC0-24 h, fold lower than AUC0-24 at rat NOAEL: < 8 fold
  Human Cmax, fold lower than Cmax at rat NOAEL: < 10 fold
[2]; [3]
  Human AUC0-24, fold lower than exposure at NOAEL: 17 fold
  Human Cmax, fold lower than exposure at NOAEL: 15 fold
[2]; rat, in vivo, female rats, end of Week 26, 6-month study
  Cmax: 13.1 µM
[2]; rat, in vivo, female rats, end of Week 26, 6-month study, read-out: AUC0-24 at the NOAEL
  AUC(0-t): 126 µM·h
